Laboratory results taken from patent publication US12077503B2, “Substituted cyclic amides and their use as herbicides” (FMC CORPORATION, priority 2015, dated 2024).

Columns and labels:
Type in all cases: in vivo
[1] = test system: ivy-leaved morning glory (Ipomoea hederacea); experiment: Test G Post-Emergence Protocol; settings: Ipomoea, post-emergence, 312 h, read-out: Morningglory, Ivy-leaved damage rating; for pest or weed control at 15.625 g/ha: 15.625 g ai/ha, evaluated after 13 days (100=total damage to plant; 0=no damage to plant); for pest or weed control at 62.5 g/ha: 62.5 g ai/ha; for pest or weed control at 62.5 g/ha / pest or weed control at 250 g/ha: evaluated after 13 days, 100=total damage to plant, 0=no damage to plant; for pest or weed control at 250 g/ha: 250 g ai/ha
Summary of the method: (§1)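 Pot-grown seedlings, 8 days old, raised in a glasshouse at 24/16 °C day/night with 14 h light and 65% humidity, were sprayed post-emergence with test compound in acetone/water (50:50) plus 0.5% Tween 20 at 15.625, 62.5 or 250 g/ha. Damage was scored visually 13 days later on a 0–100 scale (100 = total damage).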

[2] = test system: giant foxtail (Setaria faberi); experiment: Test G Post-Emergence Protocol; settings: Setaria faberi, post-emergence, 312 h, read-out: Foxtail, Giant damage rating; for pest or weed control at 15.625 g/ha: 15.625 g ai/ha, evaluated after 13 days (100=total damage to plant; 0=no damage to plant); for pest or weed control at 62.5 g/ha: 62.5 g ai/ha; for pest or weed control at 62.5 g/ha / pest or weed control at 250 g/ha: evaluated after 13 days, 100=total damage to plant, 0=no damage to plant; for pest or weed control at 250 g/ha: 250 g ai/ha
Summary of the method: as §1

[3] = test system: barnyardgrass (Echinochloa crus-galli); experiment: Test G Post-Emergence Protocol; settings: Echinochloa crus-galli, post-emergence, 312 h, read-out: Barnyardgrass damage rating; for pest or weed control at 15.625 g/ha: 15.625 g ai/ha, evaluated after 13 days (100=total damage to plant; 0=no damage to plant); for pest or weed control at 62.5 g/ha: 62.5 g ai/ha; for pest or weed control at 62.5 g/ha / pest or weed control at 250 g/ha: evaluated after 13 days, 100=total damage to plant, 0=no damage to plant; for pest or weed control at 250 g/ha: 250 g ai/ha
Summary of the method: as §1

corn (Zea mays) [4] = experiment: Test G Post-Emergence Protocol; settings: Zea mays, post-emergence, 312 h, read-out: Corn damage rating; for plant injury at 15.625 g/ha: 15.625 g ai/ha, evaluated after 13 days (100=total damage to plant; 0=no damage to plant); for plant injury at 62.5 g/ha: 62.5 g ai/ha; for plant injury at 62.5 g/ha / plant injury at 250 g/ha: evaluated after 13 days, 100=total damage to plant, 0=no damage to plant; for plant injury at 250 g/ha: 250 g ai/ha
Summary of the method: as §1

[5] = test system: redroot pigweed (Amaranthus retroflexus); experiment: Test G Post-Emergence Protocol; settings: Amaranthus retroflexus, post-emergence, 312 h, read-out: Pigweed, Redroot damage rating; for pest or weed control at 15.625 g/ha: 15.625 g ai/ha, evaluated after 13 days (100=total damage to plant; 0=no damage to plant); for pest or weed control at 62.5 g/ha: 62.5 g ai/ha; for pest or weed control at 62.5 g/ha / pest or weed control at 250 g/ha: evaluated after 13 days, 100=total damage to plant, 0=no damage to plant; for pest or weed control at 250 g/ha: 250 g ai/ha
Summary of the method: as §1

[6] = test system: velvetleaf (Abutilon theophrasti); experiment: Test G Post-Emergence Protocol; settings: Abutilon theophrasti, post-emergence, 312 h, read-out: Velvetleaf damage rating; for pest or weed control at 15.625 g/ha: 15.625 g ai/ha, evaluated after 13 days (100=total damage to plant; 0=no damage to plant); for pest or weed control at 62.5 g/ha: 62.5 g ai/ha; for pest or weed control at 62.5 g/ha / pest or weed control at 250 g/ha: evaluated after 13 days, 100=total damage to plant, 0=no damage to plant; for pest or weed control at 250 g/ha: 250 g ai/ha
Summary of the method: as §1

[7] = test system: ivy-leaved morning glory (Ipomoea hederacea); experiment: Test G Pre-Emergence Protocol; settings: evaluated after 13 days; for pest or weed control at 15.625 g/ha / pest or weed control at 62.5 g/ha / pest or weed control at 250 g/ha: Ipomoea, pre-emergence, 312 h; for pest or weed control at 15.625 g/ha: 15.625 g ai/ha; for pest or weed control at 15.625 g/ha / pest or weed control at 250 g/ha: read-out: Morningglory, Ivy-leaved damage rating (100=total damage to plant; 0=no damage to plant); for pest or weed control at 62.5 g/ha: 62.5 g ai/ha, 100=total damage to plant, 0=no damage to plant, read-out: Morningglory, Ivy-leaved damage rating
Summary of the method: (§2)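 Glasshouse pre-emergence test: soil-sown seeds, sprayed after 1 d at 15.625, 62.5 or 250 g/ha. Conditions 24/16° C day/night, 14 h light, 65% humidity, watering twice daily. Rating 13 d post-spray (100 = total damage).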

[8] = test system: giant foxtail (Setaria faberi); experiment: Test G Pre-Emergence Protocol; settings: Setaria faberi, pre-emergence, 312 h, evaluated after 13 days; for pest or weed control at 15.625 g/ha: 15.625 g ai/ha; for pest or weed control at 15.625 g/ha / pest or weed control at 250 g/ha: read-out: Foxtail, Giant damage rating (100=total damage to plant; 0=no damage to plant); for pest or weed control at 62.5 g/ha: 62.5 g ai/ha, 100=total damage to plant, 0=no damage to plant, read-out: Foxtail, Giant damage rating; for pest or weed control at 250 g/ha: 250 g ai/ha
Summary of the method: as §2

[9] = test system: barnyardgrass (Echinochloa crus-galli); experiment: Test G Pre-Emergence Protocol; settings: Echinochloa crus-galli, pre-emergence, 312 h, evaluated after 13 days; for pest or weed control at 15.625 g/ha: 15.625 g ai/ha; for pest or weed control at 15.625 g/ha / pest or weed control at 250 g/ha: read-out: Barnyardgrass damage rating (100=total damage to plant; 0=no damage to plant); for pest or weed control at 62.5 g/ha: 62.5 g ai/ha, 100=total damage to plant, 0=no damage to plant, read-out: Barnyardgrass damage rating; for pest or weed control at 250 g/ha: 250 g ai/ha
Summary of the method: as §2

corn (Zea mays) [10] = experiment: Test G Pre-Emergence Protocol; settings: evaluated after 13 days; for plant injury at 15.625 g/ha / plant injury at 62.5 g/ha / plant injury at 250 g/ha: Zea mays, pre-emergence, 312 h; for plant injury at 15.625 g/ha / plant injury at 250 g/ha: read-out: Corn damage rating (100=total damage to plant; 0=no damage to plant); for plant injury at 62.5 g/ha: 62.5 g ai/ha, 100=total damage to plant, 0=no damage to plant, read-out: Corn damage rating
Summary of the method: as §2

[11] = test system: redroot pigweed (Amaranthus retroflexus); experiment: Test G Pre-Emergence Protocol; settings: evaluated after 13 days; for pest or weed control at 15.625 g/ha / pest or weed control at 62.5 g/ha / pest or weed control at 250 g/ha: Amaranthus retroflexus, pre-emergence, 312 h; for pest or weed control at 15.625 g/ha / pest or weed control at 250 g/ha: read-out: Pigweed, Redroot damage rating (100=total damage to plant; 0=no damage to plant); for pest or weed control at 62.5 g/ha: 62.5 g ai/ha, 100=total damage to plant, 0=no damage to plant, read-out: Pigweed, Redroot damage rating
Summary of the method: as §2

[12] = test system: velvetleaf (Abutilon theophrasti); experiment: Test G Pre-Emergence Protocol; settings: evaluated after 13 days; for pest or weed control at 15.625 g/ha / pest or weed control at 62.5 g/ha / pest or weed control at 250 g/ha: Abutilon theophrasti, pre-emergence, 312 h; for pest or weed control at 15.625 g/ha / pest or weed control at 250 g/ha: read-out: Velvetleaf damage rating (100=total damage to plant; 0=no damage to plant); for pest or weed control at 62.5 g/ha: 62.5 g ai/ha, 100=total damage to plant, 0=no damage to plant, read-out: Velvetleaf damage rating
Summary of the method: as §2

Row | SMILES | pest or weed control at 15.625 g/ha [1] | pest or weed control at 62.5 g/ha [1] | pest or weed control at 250 g/ha [1] | pest or weed control at 15.625 g/ha [2] | pest or weed control at 62.5 g/ha [2] | pest or weed control at 250 g/ha [2] | pest or weed control at 15.625 g/ha [3] | pest or weed control at 62.5 g/ha [3] | pest or weed control at 250 g/ha [3] | plant injury at 15.625 g/ha (corn (Zea mays) [4]) | plant injury at 62.5 g/ha (corn (Zea mays) [4]) | plant injury at 250 g/ha (corn (Zea mays) [4]) | pest or weed control at 15.625 g/ha [5] | pest or weed control at 62.5 g/ha [5] | pest or weed control at 250 g/ha [5] | pest or weed control at 15.625 g/ha [6] | pest or weed control at 62.5 g/ha [6] | pest or weed control at 250 g/ha [6] | pest or weed control at 15.625 g/ha [7] | pest or weed control at 62.5 g/ha [7] | other results
1 | Cc1ccc(C2CN(C)C(=O)C2C(=O)Nc2cccc(F)c2F)cc1[N+](=O)[O-] (stereo not drawn) [Compound 1722] | 20% | 30% | 70% | 60% | 70% | 80% | 10% | 60% | 80% | 10% | 0% | 80% | 0% | 10% | 30% | 0% | 10% | 10% | 0% | 0% | pest or weed control at 250 g/ha ([7]; 250 g ai/ha): 0%; pest or weed control at 15.625 g/ha [8]: 60%; pest or weed control at 62.5 g/ha [8]: 70%; pest or weed control at 250 g/ha [8]: 90%; pest or weed control at 15.625 g/ha [9]: 0%; pest or weed control at 62.5 g/ha [9]: 60%; pest or weed control at 250 g/ha [9]: 80%; plant injury at 15.625 g/ha (corn (Zea mays) [10]; 15.625 g ai/ha): 10%; plant injury at 62.5 g/ha (corn (Zea mays) [10]): 30%; plant injury at 250 g/ha (corn (Zea mays) [10]; 250 g ai/ha): 70%; pest or weed control at 15.625 g/ha ([11]; 15.625 g ai/ha): 0%; pest or weed control at 62.5 g/ha [11]: 10%; pest or weed control at 250 g/ha ([11]; 250 g ai/ha): 30%; pest or weed control at 15.625 g/ha ([12]; 15.625 g ai/ha): 0%; pest or weed control at 62.5 g/ha [12]: 0%; pest or weed control at 250 g/ha ([12]; 250 g ai/ha): 20%
2 | CCCOc1cc(C2CN(C)C(=O)C2C(=O)Nc2cccc(F)c2F)cc(C(F)(F)F)c1 (stereo not drawn) [Compound 1725] | 30% | 70% | 70% | 0% | 70% | 80% | 0% | 30% | 70% | 10% | 0% | 70% | 0% | 10% | 60% | 0% | 0% | 10% | 0% | 0% | pest or weed control at 250 g/ha ([7]; 250 g ai/ha): 0%; pest or weed control at 15.625 g/ha [8]: 20%; pest or weed control at 62.5 g/ha [8]: 50%; pest or weed control at 250 g/ha [8]: 80%; pest or weed control at 15.625 g/ha [9]: 20%; pest or weed control at 62.5 g/ha [9]: 50%; pest or weed control at 250 g/ha [9]: 70%; plant injury at 15.625 g/ha (corn (Zea mays) [10]; 15.625 g ai/ha): 0%; plant injury at 62.5 g/ha (corn (Zea mays) [10]): 0%; plant injury at 250 g/ha (corn (Zea mays) [10]; 250 g ai/ha): 30%; pest or weed control at 15.625 g/ha ([11]; 15.625 g ai/ha): 0%; pest or weed control at 62.5 g/ha [11]: 0%; pest or weed control at 250 g/ha ([11]; 250 g ai/ha): 20%; pest or weed control at 15.625 g/ha ([12]; 15.625 g ai/ha): 0%; pest or weed control at 62.5 g/ha [12]: 0%; pest or weed control at 250 g/ha ([12]; 250 g ai/ha): 0%
3 | COc1c(Cl)ccc([C@H]2CN(C)C(=O)[C@@H]2C(=O)Nc2cccc(F)c2F)c1F [Compound 1773] | 20% | 10% | 60% | 80% | 80% | 80% | 80% | 80% | 80% | 70% | 80% | 80% | 20% | 20% | 40% | 0% | 20% | 40% | 0% | 60% | Morningglory, Ivy-leaved damage rating (100=total damage to plant; 0=no damage to plant) ([7]; 250 g ai/ha): 80; pest or weed control at 15.625 g/ha [8]: 90%; pest or weed control at 62.5 g/ha [8]: 90%; pest or weed control at 250 g/ha [8]: 90%; pest or weed control at 15.625 g/ha [9]: 90%; pest or weed control at 62.5 g/ha [9]: 90%; pest or weed control at 250 g/ha [9]: 90%; Corn damage rating (100=total damage to plant; 0=no damage to plant) (corn (Zea mays) [10]; 15.625 g ai/ha): 70; Corn damage rating (100=total damage to plant; 0=no damage to plant) (corn (Zea mays) [10]; 250 g ai/ha): 80; plant injury at 62.5 g/ha (corn (Zea mays) [10]): 80%; Pigweed, Redroot damage rating (100=total damage to plant; 0=no damage to plant) ([11]; 15.625 g ai/ha): 20; Pigweed, Redroot damage rating (100=total damage to plant; 0=no damage to plant) ([11]; 250 g ai/ha): 70; pest or weed control at 62.5 g/ha [11]: 20%; Velvetleaf damage rating (100=total damage to plant; 0=no damage to plant) ([12]; 15.625 g ai/ha): 10; Velvetleaf damage rating (100=total damage to plant; 0=no damage to plant) ([12]; 250 g ai/ha): 60; pest or weed control at 62.5 g/ha [12]: 30%
